# Source: patent US20250135049A1, “Methods for Biological Material Labeling and Medical Imaging” (Mayo Foundation for Medical Education and Research, priority 2021, published 2025)
# What was measured:
# [1] = tested on: human decidual stromal cells (hDSCs), bone marrow-derived macrophages (rMac) and human peripheral blood mononuclear cells (hPBMCs); details: Ref. 72; cited from earlier work
# [2] = PET imaging and ex vivo biodistribution studies; assay type: in vivo, athymic nude mice; details: for SUV Average ± SD: day 7 post-injection, free [^89Zr]ZrCl4, tail vein, n = 3
# Description: 8-10 weeks old Athymic nude mice (male and female, 1:1) were obtained from Charles Rivers Laboratories or Taconic Biosciences, Inc.
# After radiolabeling, the radiolabeled WBCs-0.1-0.6×10^6 (0.03-0.11 MBq); and SCs-0.1-1×10^6 (0.1-0.15 MBq) were injected in a group (n=3) of athymic nude mice, via tail vein injection. PET images were acquired at 4 hours, 2 days, 4 days and 7 days post-injection (p.i.) using microPET scanner. The free [^89Zr] ZrCl4 with radioactivity (0.15-0.19 MBq) was also injected intravenously via tail vein injection. The micro PET images were analyzed and scaled to SUV by image analysis software. The animals were euthanized at 7 days p.i., and organs/tissues were collected to measure standardized uptake value (SUV) in major organs. Animals were euthanized via cardiectomy under anesthesia using isoflurane as approved by the Institutional Animal Care and Use Committee (IACUC) of the Mayo Clinic Rochester MN, USA.
# [3] = Stability of HPLC-purified [^89Zr]Zr-DBN with and without ascorbic acid (HPLC); assay type: physicochemical; details: for stability of [^89Zr]Zr-DBN: stored at -20° C.
# Description: The purified and concentrated [^89Zr] Zr-DBN was stored at −20° C. and stability was tested at 0 hours, 24 hours, and 72 hours post HPLC purification and concentration in comparison with unpurified [^89Zr] Zr-DBN which was also stored at −20° C. To test the stability, the frozen [^89Zr] Zr-DBN was allowed to come to room temperature and reconstituted with ˜100 μL DMSO. The reconstituted [^89Zr] Zr-DBN (˜ 3.7 MBq) was diluted with ˜900 μL neutralized deionized water (pH 7.0) and pH was further adjusted to pH 7.0 using 1M Na2CO3. The stability of reconstituted and neutralized [^89Zr] Zr-DBN was tested using the same HPLC method that was used for [^89Zr] Zr-DBN purification.
# The HPLC purified [^89Zr] Zr-DBN (˜7.2 mL) was divided into two equal parts of ˜3.6 mL each. In one-part, 25 μL of 200 mg/mL ascorbic acid (Sigma Aldrich, St. Louis, MO, USA) was added. Both ascorbic acid treated, and untreated fractions were concentrated at 0.42 torr and room temperature. […] Zr-DBN purification.
molecule,measurement,setting,value
[89Zr+4].[O-]c1cccc2cccnc12.[O-]c1cccc2cccnc12.[O-]c1cccc2cccnc12.[O-]c1cccc2cccnc12 [[^89Zr] Zr-oxine],apparent efflux of ^89Zr from the labeled cells,[1],29-38%
"[Cl][89Zr]([Cl])([Cl])[Cl] [[^89Zr]ZrCl4, [^89Zr] ZrCl4]",SUV Average ± SD,[2]; Bladder,0.32 ± 0.09
same,SUV Average ± SD,[2]; Blood,0.12 ± 0.01
same,SUV Average ± SD,[2]; Bone,9.89 ± 0.4
same,SUV Average ± SD,[2]; Brain,0.02 ± 0.02
same,SUV Average ± SD,[2]; Heart,0.26 ± 0.03
same,SUV Average ± SD,[2]; Intestine,0.09 ± 0.01
same,SUV Average ± SD,[2]; Kidney,0.49 ± 0.07
same,SUV Average ± SD,[2]; Liver,0.61 ± 0.07
same,SUV Average ± SD,[2]; Lung,0.36 ± 0.06
same,SUV Average ± SD,[2]; Muscle,0.14 ± 0.05
same,SUV Average ± SD,[2]; Pancreas,0.29 ± 0.02
same,SUV Average ± SD,[2]; Skin,0.42 ± 0.14
same,SUV Average ± SD,[2]; Spleen,0.39 ± 0.09
same,SUV Average ± SD,[2]; Urine,0.08 ± 0.03
same,distribution of radioactivity on micro PET imaging,"[2]; intravenous injection, 4 hours, 2 days, 4 days, 7 days",high accumulation of free ^89Zr in the bones
[^89Zr] zirconium-p-isothiocyanatobenzyl-desferrioxamine [[^89Zr] Zr-DBN],stability of [^89Zr]Zr-DBN,"[3]; 72 hours post HPLC purification, without ascorbic acid",66%
same,stability of [^89Zr]Zr-DBN,"[3]; 72 hours, with addition of ascorbic acid (25 μL of 200 mg/mL)",> 82%
same,enhancement of the 27.1 minutes HPLC peak for [^89Zr]Zr-DBN by ascorbic acid,"[3]; immediately after concentration, ascorbic acid added before the concentration step",~12%
